# Test results reported in patent publication US20220016215A1, “GIP RECEPTOR AGONIST PEPTIDE COMPOUNDS AND USES THEREOF” (TAKEDA PHAARMACEUTICAL COMPANY LIMITED, priority 2018, published 2022).
# Marks after values point to notes of the source that are not given here.
# Experiments:
# human GIPR = target: T1, human GIPR (Homo sapiens, UniProt P48546); experiment: Agonist activity on human GIPR, CRE-luciferase reporter assay (increase in intracellular cAMP as indicator); format: cell-based; details: GLP1R EC50 / GIPR EC50
# T1 construct: expressed in transfected cells
# T1 sequence (P48546 22-466): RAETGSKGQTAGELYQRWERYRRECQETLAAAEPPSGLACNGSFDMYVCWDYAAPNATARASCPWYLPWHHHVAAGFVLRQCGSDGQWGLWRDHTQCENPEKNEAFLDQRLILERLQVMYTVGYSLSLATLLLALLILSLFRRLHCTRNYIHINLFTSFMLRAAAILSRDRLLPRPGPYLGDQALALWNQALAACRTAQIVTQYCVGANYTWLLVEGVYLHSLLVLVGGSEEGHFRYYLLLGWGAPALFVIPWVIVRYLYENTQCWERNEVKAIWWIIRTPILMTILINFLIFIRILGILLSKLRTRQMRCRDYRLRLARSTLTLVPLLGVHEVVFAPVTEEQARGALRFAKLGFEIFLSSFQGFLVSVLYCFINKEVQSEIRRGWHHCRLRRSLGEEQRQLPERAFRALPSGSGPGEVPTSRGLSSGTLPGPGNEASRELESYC
# From the text: The human GIPR gene having an identical sequence to Genebank Accession No. U39231 is cloned into a pMSRα-neo vector to prepare hGIPR/pMSRα-neo.
# (2) Construction of Reporter Plasmid Expressing Cell
# Luciferase reporter gene with a cAMP-responsive sequence located upstream is transferred to a CHO-K1 cell to construct a CRE-LUC/CHO-K1 cell.
# (4) Transfer of Human GIPR Gene to CRE-LUC/CHO-K1 Cell and Obtaining of Expressing Cell
# The plasmid hGIPR/pMSRα-neo obtained in (1) is transferred to the CRE-LUC/CHO-K1 cell obtained in (2) to obtain a transformant. Subsequently, the cell line inducing the luciferase expression, hGIPR/CRE-LUC/CHO-K1 cell, is selected from the obtained transformant by adding GIP.
# 25 μL each of the hGIPR/CRE-LUC/CHO-K1 cell is inoculated in a 384-well white plate (Corning) in such a way as to provide 5×10^3 cells/well and may be cultured in a HamF12 medium containing 10% fetal bovine serum, 100 U/mL penicillin, and 100 μg/mL streptomycin in a CO2 incubator at 37° C. overnight. 5 μL of a medium containing a test compound is added to the cells and incubated for 4 hours at the indicated concentration in a CO2 incubator at 37° C. Steady-Glo (Promega) is added in amounts of 30 μL and shaken under light shielding. Twenty minutes later, luciferase activity is measured using a plate reader Envision (PerkinElmer). The GIPR agonist activity is calculated with increase in intracellular cAMP concentration as the indicator when the luciferase activity in the presence of 10 nM of GIP was 100% and the luciferase activity in the case of adding DMSO instead of the test compound was 0%.
# [1] = test system: morphine (0.6 mg/kg, s.c.)-induced emesis in ferrets; experiment: Morphine-induced acute emetic model in male ferrets; format: in vivo, ferret; details: for Comment: Anti-Emetic Activity (inhibition) on morphine-induced emesis: summary of the morphine experiments
# In short: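 Male ferrets (4 per group) received peptide at 10 or 30 nmol/kg s.c. in 0.09% Tween 80/10% DMSO/saline, or vehicle. Morphine 0.6 mg/kg s.c. was given 4 or 120 h later, and abdominal contractions, vomiting, licking and fidgeting were recorded for up to 360 min.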
# [2] = ferret, morphine 0.6 mg/kg s.c. 4 h after drug, 1047 μg/kg s.c.
# [3] = ferret, morphine 0.6 mg/kg s.c. 4 h after drug, 1047 μg/kg s.c., non-responders counted as 30 min
# [4] = male ferrets, 30 nmol/kg s.c., morphine 0.6 mg/kg s.c. 4 hours after administration
structure (smiles),measurement,setting,value
CCCCCCCCCCCCCCCC(=O)NCCCC[C@H](NC(=O)[C@H](Cc1c[nH]c2ccccc12)NC(=O)[C@H](CC(=O)O)NC(=O)[C@H](CC(N)=O)NC(=O)[C@H](CCCCN)NC(=O)[C@H](CCCCN)NC(=O)CNC(=O)[C@H](CCCCN)NC(=O)[C@H](CCC(N)=O)NC(=O)[C@H](C)NC(=O)[C@H](CC(C)C)NC(=O)[C@H](CC(C)C)NC(=O)[C@H](Cc1c[nH]c2ccccc12)NC(=O)[C@H](CC(N)=O)NC(=O)[C@@H](NC(=O)[C@H](Cc1ccccc1)NC(=O)[C@H](CC(=O)O)NC(=O)[C@H](CCC(N)=O)NC(=O)[C@H](CCC(N)=O)NC(=O)[C@H](Cc1c[nH]cn1)NC(=O)[C@@H](NC(=O)[C@H](CCCCN)NC(=O)[C@H](CC(=O)O)NC(=O)[C@H](CCSC)NC(=O)[C@H](C)NC(=O)[C@@H](NC(=O)[C@H](CO)NC(=O)[C@H](Cc1ccc(O)cc1)NC(=O)[C@H](CC(=O)O)NC(=O)[C@H](CO)NC(=O)[C@@H](NC(=O)[C@H](Cc1ccccc1)NC(=O)[C@@H](NC(=O)CNC(=O)[C@H](CCC(=O)O)NC(=O)[C@@H](C)NC(=O)[C@@H](N)Cc1ccc(O)cc1)[C@@H](C)O)[C@@H](C)CC)[C@@H](C)CC)[C@@H](C)CC)C(C)C)C(=O)N[C@@H](Cc1c[nH]cn1)C(=O)N[C@@H](CC(N)=O)C(=O)N[C@H](C(=O)N[C@H](C(=O)N[C@@H](CCC(N)=O)C(N)=O)[C@@H](C)CC)[C@@H](C)CC [Compound 2],Selectivity Ratio (B/A),human GIPR,417
same,Emesis: Duration,[1]; [2],0.3 ± 0.6 min
same,Emesis: Frequency,[1]; [2],2.7 ± 4.6
same,Emesis: No. of animals (responder/used),[1]; [2],1/3
same,Fidget: Duration,[1]; [2],0.3 ± 0.6 min
same,Fidget: Frequency,[1]; [2],0.3 ± 0.6
same,Fidget: No. of animals (responder/used),[1]; [2],1/3
same,Licking: Duration,[1]; [2],0.0 ± 0.0 min
same,Licking: Frequency,[1]; [2],0.0 ± 0.0
same,Licking: No. of animals (responder/used),[1]; [2],0/3 #
same,Retching: Duration,[1]; [2],0.3 ± 0.6 min
same,Retching: Frequency,[1]; [2],2.7 ± 4.6
same,Retching: No. of animals (responder/used),[1]; [2],1/3
same,Vomiting: Duration,[1]; [2],0.0 ± 0.0 min
same,Vomiting: Frequency,[1]; [2],0.0 ± 0.0
same,Vomiting: No. of animals (responder/used),[1]; [2],0/3
same,Emesis: Latency,[1]; [3],22.7 ± 12.7 min
same,Fidget: Latency,[1]; [3],22.7 ± 12.7 min
same,Licking: Latency,[1]; [3],30.0 ± 0.0 min
same,Retching: Latency,[1]; [3],22.7 ± 12.7 min
same,Vomiting: Latency,[1]; [3],30.0 ± 0.0 min
same,Attenuation of morphine-induced emesis (in words),"[1]; male ferrets, 30 nmol/kg s.c. 30 minutes before morphine 0.6 mg/kg s.c.",completely attenuated
same,Comment: Anti-Emetic Activity (inhibition) on morphine-induced emesis,[1]; male ferrets,partial inhibition
CCCCCCCCCCCCCCCC(=O)NCCCC[C@H](NC(=O)[C@H](CC(=O)O)NC(=O)[C@H](CCSC)NC(=O)[C@H](C)NC(=O)[C@@H](NC(=O)[C@H](CO)NC(=O)[C@H](Cc1ccc(O)cc1)NC(=O)[C@H](CC(=O)O)NC(=O)[C@H](CO)NC(=O)[C@@H](NC(=O)[C@H](Cc1ccccc1)NC(=O)[C@@H](NC(=O)CNC(=O)[C@H](CCC(=O)O)NC(=O)[C@H](C)NC(=O)[C@@H](N)Cc1ccc(O)cc1)[C@@H](C)O)[C@@H](C)CC)[C@@H](C)CC)C(=O)N[C@H](C(=O)N[C@@H](Cc1c[nH]cn1)C(=O)N[C@@H](CCC(N)=O)C(=O)N[C@@H](CCC(N)=O)C(=O)N[C@@H](CC(=O)O)C(=O)N[C@@H](Cc1ccccc1)C(=O)N[C@H](C(=O)N[C@@H](CC(N)=O)C(=O)N[C@@H](Cc1c[nH]c2ccccc12)C(=O)N[C@@H](CC(C)C)C(=O)N[C@@H](CC(C)C)C(=O)N[C@@H](C)C(=O)N[C@@H](CCC(N)=O)C(=O)N[C@@H](CCCCN)C(=O)NCC(=O)N[C@@H](CCCCN)C(=O)N[C@@H](CCCCN)C(=O)N[C@@H](CC(N)=O)C(=O)N[C@@H](CC(=O)O)C(=O)N[C@@H](Cc1c[nH]c2ccccc12)C(=O)N[C@@H](CCCCN)C(=O)N[C@@H](Cc1c[nH]cn1)C(=O)N[C@@H](CC(N)=O)C(=O)N[C@H](C(=O)N[C@H](C(=O)N[C@@H](CCC(N)=O)C(N)=O)[C@@H](C)CC)[C@@H](C)CC)C(C)C)[C@@H](C)CC [Compound 3],Selectivity Ratio (B/A),human GIPR,447
same,Ferrets in which the vomiting symptom was observed (in words),"[1]; ferrets, morphine administered 4 hours after administration",all of the 4 ferrets
same,Duration of emesis,[1]; [4],5.5 ± 7.1 min
same,Emetic episodes,[1]; [4],21.8 ± 19.2
same,Latency period,[1]; [4],7.0 ± 2.9 min
same,No. of animals that did not vomit,[1]; [4],0
same,"Emetic episodes, % Inhibition of mean value","[1]; male ferrets, 30 nmol/kg s.c., morphine 0.6 mg/kg s.c. 4 hours after administration, vs vehicle",[−143%]
same,Comment: Anti-Emetic Activity (inhibition) on morphine-induced emesis,[1]; male ferrets,partial inhibition
